No end group written: not given here.
Tests used:
sensory panel [1] = experiment: Taste threshold in water (intrinsic taste), duo-trio tests; type: in vivo
Protocol: (§1) The threshold concentrations of 21 newly identified peptides were determined in water for the intrinsic taste and in model broth (pH 6.0 adjusted with 1% formic acid) for the taste modulating properties, respectively (Table 4). The peptides were dissolved, serially diluted 1:2, and presented to the panel using duo-trio-tests with ascending concentrations as reported in literatures. The geometric mean of the last and the second to last concentration was calculated and taken as the individual recognition threshold. The threshold value of the sensory panel was approximated by averaging the threshold values of the individuals in two independent sessions. [formula] • wherein • Cp: the threshold of a panelist, • C1: the first correctly evaluated concentration, • C0: the first misjudged concentration [formula] • wherein • Cs: the thresholds of total panelists, • Cp: the threshold of a panelist, • n: the number of panel members

sensory panel [2] = experiment: Taste threshold in model broth (taste modulating properties), duo-trio tests; type: in vivo; settings: for Taste properties in model broth / Threshold in model broth: model broth pH 6.0; for Threshold in model broth: taste modulating threshold
Protocol: as §1

[3] = Quantification of peptides in the hydrolyzed chicken plasma sample and DoT factors; settings: ratio of concentration in hydrolyzed chicken plasma sample to taste threshold in model broth
From the text: To identify the peptides which play a key role on taste-active and taste-modulating effects, not only the 21 newly identified peptides, but also literature-known basic tastants (e.g., amino acids, γ-glutamyl peptides, cations, anions, etc.) were quantified in the hydrolyzed chicken plasma sample. Focusing on the 21 newly identified peptides, the taste quality, taste thresholds, dose over threshold (DOT) factors and concentrations of the peptides in the hydrolyzed chicken plasma sample are shown in Table 6. The taste thresholds determined for the newly identified peptides (those are listed in Table 6) were used for the calculation of DoT factors which are defined as the ratio of the concentration of a substance and its corresponding taste threshold concentration. The DoT factors enable a first estimation of the taste contribution as substances with DoT factors≥1 most likely contribute directly to the perceived taste.

sensory panel [4] = experiment: Taste threshold in commercial chicken soup, duo-trio tests; type: in vivo; settings: for Taste threshold in food products, Commercial chicken soup: 3 g powder in 150 mL, spiked at 2 mmol/L, diluted
From the text: To investigate the taste-modulating performance of the identified peptides in food products, the commercial chicken soup and model broth were used for further sensory experiments. According to the sensory experiment, the peptides such as Pro-Val-Leu-Lys (SEQ ID NO: 1), Pro-Leu-Pro-Arg (SEQ ID NO: 2), Glu-Ala-Glu-Phe-Asp (SEQ ID NO: 3), Pro-Gln-Pro-Glu-Arg (SEQ ID NO: 5), and Glu-Asp-Ala-Pro-Val-Leu-His (SEQ ID NO: 7) are spiked into the commercial chicken soup (Netto Marken-Discount AG&CO.KG, Maxhütte-Haidhof) and the model broth. According to the experiments, 3 g of the commercial chicken soup powder was dissolved in 150 mL boiling water. The peptides (each 2 mmol/L) were spiked into 20 mL solution of this solution. Afterwards, the taste threshold was determined by means of duo-trio-tests as previously described (using chicken soup as reference).

sensory panel [5] = experiment: Taste threshold in model broth (taste modulating properties), duo-trio tests; type: in vivo; settings: as listed in Table 7
Panelists = experiment: Salt isointensity test; type: in vivo; settings: for Average perceived salt isointensity / Salt-taste enhancing or reducing property: peptide 1 mmol/L in model broth containing 50 mM NaCl; for Enhancement or reduction: versus 50 mM NaCl, isointensity above 50 = enhancement, below 50 = reduction, peptide 1 mmol/L
Protocol: To investigate the effects of peptides on the perceived saltiness, a salt isointensity test was performed according to literatures. In salt-isointensity test, the peptides (1 mmol/L) were spiked into model broth containing 50 mM NaCl and the panelists were asked to evaluate the intensity of saltiness compared with the following NaCl concentrations of 30, 40, 50, 60, 70, and 80 mmol/L. The results are shown in Table 5.

Substance	Taste properties in water (sensory panel [1])	Threshold in water (sensory panel [1])	Taste properties in model broth (sensory panel [2])	Threshold in model broth (sensory panel [2]) [µmol/L]	DoT factor [3]	Threshold in model broth, times lower than in commercial chicken soup (sensory panel [4]; chicken soup versus model broth) [times]	Taste threshold in food products, Commercial chicken soup (sensory panel [4]; commercial chicken soup)	Taste threshold in food products, Model broth (sensory panel [5]) [µmol/L]	Average perceived salt isointensity (Panelists) [mmol/L NaCl]	Salt-taste enhancing or reducing property (Panelists)	Enhancement or reduction (Panelists) [%]	Taste threshold in model broth (sensory panel [2]; as listed in Table 6) [µmol/L]	Not differentiated up to max concentration tested in commercial chicken soup (sensory panel [4]; commercial chicken soup) [mmol/L]
Pro-Leu-Pro-Arg (PLPR; Poultry) [SEQ ID NO: 2]	astringent	296 µmol/L	umami, kokumi	112	0.0	4	418 µmol/L	112	–	–	–	–	–
EFDARPT [SEQ ID NO: 8]	–	tasteless	kokumi, salty	351	0.0	–	–	–	66.7	salt-tase enhancing	33	–	–
RAEDTATYY [SEQ ID NO: 18]	–	610 µmol/L	kokumi, umami	247	0.0	–	–	–	–	–	–	–	–
EDAPVLH [SEQ ID NO: 7]	astringent	565 µmol/L	–	–	0.1	–	–	236	–	–	–	236	–
Pro-Val-Leu-Lys (PVLK; Poultry) [SEQ ID NO: 1]	–	tasteless	–	296	0.0	–	–	296	42.9	salt-tase reducing	14	–	–
ENAPDQK [SEQ ID NO: 12]	–	907 µmol/L	kokumi, umami	137	0.2	–	–	–	–	–	–	–	–
Pro-Thr-Asp-Leu (PTDL; Poultry) [SEQ ID NO: 15]	–	tasteless	–	97	–	–	–	–	–	–	–	–	–
Pro-Gln-Pro-Glu-Arg (PQPER; Poultry) [SEQ ID NO: 5]	–	705 µmol/L	–	133	0.0	–	No effect	133	–	–	–	–	> 2
EETPSHD [SEQ ID NO: 9]	–	283 µmol/L	umami, kokumi	36	0.1	–	–	–	–	–	–	–	–
Pro-Val-Ala-Glu (PVAE; Poultry) [SEQ ID NO: 16]	–	688 µmol/L	kokumi, salty	243	0.7	–	–	–	62.0	salt-tase enhancing	24	–	–
EGDSAAI [SEQ ID NO: 19]	–	tasteless	umami, kokumi	212	0.2	–	–	–	–	–	–	–	–

— patent US20260055137A1, “NOVEL ISOLATED PEPTIDES, PROTEIN HYDROLYSATE COMPRISING THE SAID ISOLATED PEPTIDES AND USE THEREOF” (BETAGRO PUBLIC COMPANY LIMITED, priority 2022, published 2026)
